{
  "source": "ChEMBL document CHEMBL5678800",
  "about": "(Mol Cancer Ther, 2009)",
  "key": {"[1]": {"assay": "Toxicity in nude mouse xenografted with human GEO cells assessed as body weight loss at 12.5 mg/kg, po administered for 3 days in presence of cetuximab at 0.25 mg/kg relative to control", "format": "organism-based", "conditions": "in vivo, 72 h, time 3 day"}, "GEO [2]": {"test_system": "GEO", "assay": "Antitumor activity against human GEO cells xenografted in nude mouse assessed as tumor growth inhibition at 12.5 mg/kg, po administered for 3 days in presence of cetuximab at 0.25 mg/kg relative to control", "format": "functional", "conditions": "72 h, time 3 day, read-out: TGI"}, "[3]": {"assay": "Toxicity in nude mouse xenografted with human GEO cells assessed as body weight loss at 25 mg/kg, po administered for 17 days", "format": "organism-based", "conditions": "in vivo, 408 h, time 17 day"}, "[4]": {"assay": "Toxicity in nude mouse xenografted with human GEO cells assessed as body weight loss at 6.25 mg/kg, po administered for 3 days in presence of cetuximab at 0.25 mg/kg relative to control", "format": "organism-based", "conditions": "in vivo, 72 h, time 3 day"}, "[5]": {"assay": "Plasma concentration in nude mouse xenografted with mouse IGF-1R-Sal cells at 3.125 mg/kg, po administered for 2 hrs by LC-MS/MS analysis", "format": "ADME, organism-based"}, "Mus musculus [6]": {"test_system": "Mus musculus", "assay": "Anti-diabetic activity against nude mouse xenografted with mouse IGF-1R-Sal cells assessed as insulin level at 12.5 mg/kg, po administered for 2 hrs by ELISA analysis (Rvb= 0.39 +/- […])", "format": "functional"}, "[7]": {"assay": "Plasma concentration in nude mouse xenografted with mouse IGF-1R-Sal cells po administered for 2 hrs by LC-MS/MS analysis"}, "[8]": {"assay": "Toxicity in nude mouse xenografted with human GEO cells assessed as mortality at 25 mg/kg, po administered for 17 days relative to control", "format": "organism-based", "conditions": "in vivo, time 17 day"}, "Rh41 [9]": {"test_system": "Rh41", "assay": "Induction of cell cycle arrest in human Rh41 cells assessed as accumulation of cells at G2/M phase by measuring >4N DNA content at 10x IC50 incubated for 48 hrs by propidium iodide staining based flow cytometry analysis", "format": "functional"}, "Mus musculus [10]": {"test_system": "Mus musculus", "assay": "Anti-diabetic activity against nude mouse xenografted with mouse IGF-1R-Sal cells assessed as increased serum glucose level at 3.125 mg/kg, po administered for 2 hrs by oral glucose tolerance test (Rvb= 97.40 +/- 5.0 mg/dl)", "format": "functional"}, "[11]": {"assay": "Toxicity in nude mouse xenografted with human GEO cells assessed as mortality at 12.5 mg/kg, po administered for 3 days in presence of cetuximab at 0.25 mg/kg relative to control", "format": "organism-based", "conditions": "in vivo, time 3 day"}, "Mus musculus [12]": {"test_system": "Mus musculus", "assay": "Anti-diabetic activity against nude mouse xenografted with mouse IGF-1R-Sal cells assessed as increased serum glucose level at 25 mg/kg, po administered for 2 hrs by oral glucose tolerance test (Rvb= 97.40 +/- 5.0 mg/dl)", "format": "functional"}, "COLO 205": {"test_system": "COLO 205", "assay": "Antitumor activity against human COLO 205 cells xenografted in nude mouse assessed as tumor growth inhibition at 50 mg/kg, po administered for 23 days relative to control", "format": "functional", "conditions": "COLO 205, 552 h, time 23 day, read-out: TGI"}, "GEO [13]": {"test_system": "GEO", "assay": "Antitumor activity against human GEO cells xenografted in nude mouse assessed as tumor growth inhibition at 25-50 mg/kg, po administered for 14 days relative to control", "format": "functional", "conditions": "336 h, time 14 day, read-out: TGI"}, "[14]": {"assay": "Toxicity in nude mouse xenografted with human GEO cells assessed as body weight loss at 25 mg/kg, po administered for 3 days in presence of cetuximab at 0.125 mg/kg relative to control", "format": "organism-based", "conditions": "in vivo, 72 h, time 3 day"}, "IGF-1R-Sal": {"test_system": "IGF-1R-Sal", "assay": "In vivo inhibition of IGF-1R phosphorylation in mouse IGF-1R-Sal cells xenografted in nude mouse at 12.5 mg/kg, po administered for 8 to 24 hrs by Western blotting analysis", "format": "functional, organism-based", "conditions": "time lower 8.0 hrs, time upper […]"}, "GEO [15]": {"test_system": "GEO", "assay": "Antitumor activity against human GEO cells xenografted in nude mouse assessed as tumor growth delay time at 12.5 mg/kg, po administered for 3 days in presence of cetuximab at 0.125 mg/kg relative to control", "format": "functional", "conditions": "time 3 day"}, "GEO [16]": {"test_system": "GEO", "assay": "Antitumor activity against human GEO cells xenografted in nude mouse assessed as tumor growth inhibition at 25 mg/kg, po administered for 3 days in presence of cetuximab at 0.25 mg/kg relative to control", "format": "functional", "conditions": "72 h, time 3 day, read-out: TGI"}, "GEO [17]": {"test_system": "GEO", "assay": "Antitumor activity against human GEO cells xenografted in nude mouse assessed as tumor growth inhibition at 12.5 mg/kg, po administered for 17 days relative to control", "format": "functional", "conditions": "408 h, time 17 day, read-out: TGI"}, "Mus musculus [18]": {"test_system": "Mus musculus", "assay": "Anti-diabetic activity against nude mouse xenografted with mouse IGF-1R-Sal cells assessed as insulin level at 3.125 mg/kg, po administered for 2 hrs by ELISA analysis (Rvb= 0.39 +/- […])", "format": "functional"}, "RD1": {"test_system": "RD1", "assay": "Antitumor activity against human RD1 cells xenografted in nude mouse assessed as tumor growth inhibition at 50 mg/kg, po administered for 14 days relative to control", "conditions": "336 h, read-out: TGI"}, "GEO [19]": {"test_system": "GEO", "assay": "Antitumor activity against human GEO cells xenografted in nude mouse assessed as tumor growth delay time at 12.5 mg/kg, po administered for 3 days in presence of cetuximab at 0.25 mg/kg relative to control", "format": "functional", "conditions": "time 3 day"}, "GEO [20]": {"test_system": "GEO", "assay": "Antitumor activity against human GEO cells xenografted in nude mouse assessed as tumor growth delay time at 6.25 mg/kg, po administered for 17 days relative to control", "format": "functional", "conditions": "time 17 day"}, "[21]": {"molecular_target": "High affinity nerve growth factor receptor (Rattus norvegicus, UniProt P35739)", "sequence (P35739 whole entry)": "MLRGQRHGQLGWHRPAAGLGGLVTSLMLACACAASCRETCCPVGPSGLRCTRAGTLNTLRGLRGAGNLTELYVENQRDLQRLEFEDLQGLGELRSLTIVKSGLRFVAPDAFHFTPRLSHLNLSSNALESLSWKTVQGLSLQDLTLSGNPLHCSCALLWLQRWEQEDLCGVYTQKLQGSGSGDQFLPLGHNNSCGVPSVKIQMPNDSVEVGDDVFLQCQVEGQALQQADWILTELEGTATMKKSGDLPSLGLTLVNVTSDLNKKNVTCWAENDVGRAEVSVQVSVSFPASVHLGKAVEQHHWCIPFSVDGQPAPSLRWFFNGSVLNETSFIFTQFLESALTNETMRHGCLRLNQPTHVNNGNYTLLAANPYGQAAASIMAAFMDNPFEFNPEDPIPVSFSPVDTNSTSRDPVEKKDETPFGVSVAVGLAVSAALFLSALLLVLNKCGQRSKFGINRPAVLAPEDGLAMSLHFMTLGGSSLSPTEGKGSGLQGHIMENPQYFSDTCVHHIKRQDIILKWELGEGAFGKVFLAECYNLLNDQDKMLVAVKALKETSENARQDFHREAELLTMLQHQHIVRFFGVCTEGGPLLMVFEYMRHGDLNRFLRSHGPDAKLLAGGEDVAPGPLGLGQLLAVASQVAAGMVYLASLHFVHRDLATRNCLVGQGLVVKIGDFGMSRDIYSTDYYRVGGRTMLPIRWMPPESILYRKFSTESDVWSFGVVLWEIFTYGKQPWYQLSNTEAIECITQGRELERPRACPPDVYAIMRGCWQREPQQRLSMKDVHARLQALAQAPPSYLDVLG", "assay": "Inhibition of TrkA autophosphorylation in rat CD8-TrkA cells by Western blotting analysis", "format": "cell-based"}, "[22]": {"assay": "Toxicity in nude mouse xenografted with human GEO cells assessed as mortality at 6.25 mg/kg, po administered for 3 days in presence of cetuximab at 0.25 mg/kg relative to control", "format": "organism-based", "conditions": "in vivo, time 3 day"}, "GEO [23]": {"test_system": "GEO", "assay": "Antitumor activity against human GEO cells xenografted in nude mouse assessed as tumor growth inhibition at 25 mg/kg, po administered for 17 days relative to control", "format": "functional", "conditions": "408 h, time 17 day, read-out: TGI"}, "[24]": {"assay": "Toxicity in nude mouse xenografted with human GEO cells assessed as body weight loss at 6.25 mg/kg, po administered for 17 days", "format": "organism-based", "conditions": "in vivo, 408 h, time 17 day"}, "[25]": {"assay": "Antitumor activity against mouse IGF-1R-Sal cells xenografted in nude mouse assessed as tumor growth inhibition at 3.1 to 12.5 mg/kg, po administered for 4 days relative to control", "format": "functional", "conditions": "dose 3.1-12.5 mg/kg, time 4 day"}, "[26]": {"assay": "Toxicity in nude mouse xenografted with human GEO cells assessed as mortality at 6.25 mg/kg, po administered for 3 days in presence of cetuximab at 0.125 mg/kg relative to control", "format": "organism-based", "conditions": "in vivo, time 3 day"}, "Mus musculus [27]": {"test_system": "Mus musculus", "assay": "Anti-diabetic activity against nude mouse xenografted with mouse IGF-1R-Sal cells assessed as increased serum glucose level at 12.5 mg/kg, po administered for 2 hrs by oral glucose tolerance test (Rvb= 97.40 +/- 5.0 mg/dl)", "format": "functional"}, "[28]": {"assay": "Toxicity in nude mouse xenografted with human GEO cells assessed as mortality at 6.25 mg/kg, po administered for 17 days relative to control", "format": "organism-based", "conditions": "in vivo, time 17 day"}, "Rh41 [29]": {"test_system": "Rh41", "assay": "Antitumor activity against human Rh41 cells xenografted in nude mouse assessed as tumor growth inhibition at 3.1 to 25 mg/kg, po administered for 14 days relative to control", "format": "functional", "conditions": "dose 3.1-25 mg/kg, time 14 day"}},
  "note": "Activity calls are given as the source filed them. The calls are words filed in the database; no cut-off is given here.",
  "data": [
    {"smiles": "C[C@@]1(C(=O)Nc2ccc(F)nc2)CCCN1c1nc(Nc2cc(C3CC3)n[nH]2)c2cccn2n1", "note": "[BMS-754807]", "values": [
      {"measurement": "Activity", "setting": "[1]", "value": 1.2, "unit": "g"},
      {"measurement": "inhibition in vivo at 12.5 mg/kg", "setting": "GEO [2]", "value": 88, "unit": "%"},
      {"measurement": "Activity", "setting": "[3]", "value": -1.5, "unit": "g"},
      {"measurement": "Activity", "setting": "[4]", "value": 1.4, "unit": "g"},
      {"measurement": "concentration at 2 h", "setting": "[5]", "value": 7, "unit": "nM"},
      {"measurement": "Activity", "setting": "Mus musculus [6]", "value": 5.1, "unit": "ng/mL"},
      {"measurement": "concentration at 2 h", "setting": "[7]", "value": 94, "unit": "nM"},
      {"measurement": "mortality at 408 h", "setting": "[8]", "value": 0, "unit": "%"},
      {"measurement": "Activity", "setting": "Rh41 [9]", "value": "Active"},
      {"measurement": "Activity", "setting": "Mus musculus [10]", "value": 91, "unit": "mg/dL"},
      {"measurement": "mortality at 72 h", "setting": "[11]", "value": 0, "unit": "%"},
      {"measurement": "Activity", "setting": "Mus musculus [12]", "value": 95, "unit": "mg/dL"},
      {"measurement": "inhibition in vivo at 50 mg/kg", "setting": "COLO 205", "value": 53, "unit": "%"},
      {"measurement": "inhibition in vivo at 50 mg/kg", "setting": "GEO [13]", "value": 41, "unit": "%"},
      {"measurement": "Activity", "setting": "[14]", "value": 0.6, "unit": "g"},
      {"measurement": "inhibition", "setting": "IGF-1R-Sal", "value": "Active"},
      {"measurement": "Time", "setting": "GEO [15]", "value": 30, "unit": "days"},
      {"measurement": "inhibition in vivo at 25 mg/kg", "setting": "GEO [16]", "value": 88, "unit": "%"},
      {"measurement": "inhibition in vivo at 12.5 mg/kg", "setting": "GEO [17]", "value": 38, "unit": "%"},
      {"measurement": "Activity", "setting": "Mus musculus [18]", "value": 2, "unit": "ng/mL"},
      {"measurement": "inhibition in vivo at 50 mg/kg", "setting": "RD1", "value": 58, "unit": "%"},
      {"measurement": "Time", "setting": "GEO [19]", "value": 38, "unit": "days"},
      {"measurement": "Time", "setting": "GEO [20]", "value": 3, "unit": "days"},
      {"measurement": "IC50", "setting": "[21]", "value": 1020, "unit": "nM"},
      {"measurement": "mortality at 72 h", "setting": "[22]", "value": 0, "unit": "%"},
      {"measurement": "inhibition in vivo at 25 mg/kg", "setting": "GEO [23]", "value": 61, "unit": "%"},
      {"measurement": "Activity", "setting": "[24]", "value": -0.4, "unit": "g"},
      {"measurement": "TGI", "setting": "[25]", "value": 80, "unit": "%"},
      {"measurement": "mortality at 72 h", "setting": "[26]", "value": 0, "unit": "%"},
      {"measurement": "Activity", "setting": "Mus musculus [27]", "value": 89, "unit": "mg/dL"},
      {"measurement": "mortality at 408 h", "setting": "[28]", "value": 0, "unit": "%"},
      {"measurement": "TGI", "setting": "Rh41 [29]", "value": 65, "unit": "%"}
    ]}
  ]
}
